We go through four molecules from ChEMBL document CHEMBL1128838, “Synthesis of antiparasitic licorice chalcones” (1995).

Test [1] in a line: Evaluated for the PHA (phytohemagglutininin A) induced proliferation of human peripheral lymphocytes at a dose of 1 ug/ml. Type of test: functional.
The nature of test [2]: Evaluated for the PHA (phytohemagglutininin A) induced proliferation of human peripheral lymphocytes at a dose of 10 ug/ml. Type of test: functional.
The nature of test [3]: Evaluated for the PHA (phytohemagglutininin A) induced proliferation of human peripheral lymphocytes at a dose of 20 ug/ml. The format is functional.
Test [4] in a line: Evaluated for the PHA (phytohemagglutininin A) induced proliferation of human peripheral lymphocytes at a dose of 5 ug/ml. The format is functional.
Test [5] deals with Leishmania major. The test is described as follows: Antiparasitic activity was estimated by ability to inhibit the in vitro growth of Leishmania major measured by the decreased uptake of [3H]thymidine at 1 ug/mL. The format is functional.
Test [6] relates to Leishmania major. The test is described as follows: Antiparasitic activity was estimated by ability to inhibit the in vitro growth of Leishmania major measured by the decreased uptake of [3H]thymidine at 10 ug/mL. The format is functional.
Test [7] deals with Leishmania major. Description: Antiparasitic activity was estimated by ability to inhibit the in vitro growth of Leishmania major measured by the decreased uptake of [3H]-thymidine at 20 ug/mL. Type of test: functional.
Test [8] concerns Leishmania major. Description: Antiparasitic activity was estimated by ability to inhibit the in vitro growth of Leishmania major measured by the decreased uptake of [3H]thymidine at 5 ug/mL. The format is functional.
The nature of test [9]: Evaluated for the PHA (phytohemagglutininin A) induced proliferation of human peripheral lymphocytes at a dose of 100 ug/ml. Type of test: functional.
Test [10] can be described thus: Evaluated for the PHA (phytohemagglutininin A) induced proliferation of human peripheral lymphocytes at a dose of 25 ug/ml. Type of test: functional.
Test [11] in a line: Evaluated for the PHA (phytohemagglutininin A) induced proliferation of human peripheral lymphocytes at a dose of 50 ug/ml. Type of test: functional.
Test [12] has as its system Leishmania major. Description: Antiparasitic activity was estimated by ability to inhibit the in vitro growth of Leishmania major measured by the decreased uptake of [3H]thymidine at 100 ug/mL. Type of test: functional.
Test [13] has as its system Leishmania major. The test is described as follows: Antiparasitic activity was estimated by ability to inhibit the in vitro growth of Leishmania major measured by the decreased uptake of [3H]thymidine at 25 ug/mL. The format is functional.
In test [14] the test system is Leishmania major. Description: Antiparasitic activity was estimated by ability to inhibit the in vitro growth of Leishmania major measured by the decreased uptake of [3H]thymidine at 50 ug/mL. The format is functional.
Test [15] has as its system Leishmania donovani. The test is described as follows: Inhibition of [3H]thymidine uptake in amastigotes of Leishmania donovani in infected human peripheral blood monocyte derived macrophages at a dose of 0.5 ug/ml. Type of test: functional.
For test [16], the system named is Leishmania donovani. The test is described as follows: Inhibition of [3H]thymidine uptake in amastigotes of Leishmania donovani in infected human peripheral blood monocyte derived macrophages at a dose of 1 ug/ml. The format is functional.
Test [17] relates to Leishmania donovani. The test is described as follows: Inhibition of [3H]-thymidine uptake in amastigotes of Leishmania donovani in infected human peripheral blood monocyte derived macrophages at a dose of 10 ug/ml. Type of test: functional.
Test [18] deals with Leishmania donovani. The test is described as follows: Inhibition of [3H]thymidine uptake in amastigotes of Leishmania donovani in infected human peripheral blood monocyte derived macrophages at a dose of 5 ug/ml. Type of test: functional.
In test [19] the test system is Leishmania major. Description: Compound was tested for its ability to inhibit the growth of Leishmania major at a dose of 10 ug/ml. The format is functional, organism-based.
In test [20] the test system is Leishmania major. Description: Compound was tested for its ability to inhibit the growth of Leishmania major at a dose of 100 ug/ml. The format is functional, organism-based.
In test [21] the test system is Leishmania major. Description: Compound was tested for its ability to inhibit the growth of Leishmania major at a dose of 1 ug/ml. Type of test: functional, organism-based.

Regarding `COc1c(/C=C/C(=O)c2ccc(O)cc2)ccc(O)c1CC=C(C)C`, the inhibition (in general, the drop in the measured response relative to a control, in per cent) at 1 µg/mL is 5.5% in [1] and 3.9% in test [5]. The inhibition at 10 µg/mL in test [2] was 30.4%; in test [6], 51.5%. In addition, the inhibition at 20 µg/mL in [3] was 73.2%; in test [7] it was 93.8%. Also, the inhibition at 5 µg/mL in test [4] was 14.8%; in test [8], 20.7%.
With `COc1cc(O)ccc1/C=C/C(=O)c1ccc(O)cc1` [ECHINATIN], the inhibition at 100 µg/mL in [9] is 26.4%; in test [12], 86.8%. Further, the inhibition at 25 µg/mL was 10.4% in test [10] and 50.3% in test [13]. Besides, the figures for the inhibition at 50 µg/mL in [11] and in test [14] were 18% and 69.3%, respectively. Also, the values for the inhibition at 10 µg/mL in test [2], in test [6] and in [17] were 9.2%, 30% and 94%, respectively. The inhibition at 5 µg/mL was 7.8% in [4], 16.4% in [8] and 92% in test [18]. In addition, in [15], the inhibition at 0.5 µg/mL stood at 57%. In addition, at 1 µg/mL the inhibition in test [16] was 62%.
In the case of `C=CC(C)(C)c1cc(/C=C/C(=O)c2ccc(O)cc2)c(OC)cc1O` [LICOAGROCHACONE A], the inhibition at 1 µg/mL was 4.7% in test [1] and 3.6% in test [5]. Further, the inhibition at 10 µg/mL in test [2] was 39.7%; in test [6] it was 91.9%. For the same molecule, the inhibition at 20 µg/mL is 65.3% in [3] and 96% in test [7]. In addition, the results for the inhibition at 5 µg/mL in [4] and in test [8] were 20.8% and 63.9%, respectively.
Pentostam: the inhibition in test [19] amounted to 35%; in [20], 95%; in [21] it was 18%.
